Here are results for 23 molecules from patent US20250312352A1, “GLP-1R MODULATING COMPOUNDS” (Gilead Sciences, Inc., priority 2021, published 2025).

T1 sequence (P43220 24-463): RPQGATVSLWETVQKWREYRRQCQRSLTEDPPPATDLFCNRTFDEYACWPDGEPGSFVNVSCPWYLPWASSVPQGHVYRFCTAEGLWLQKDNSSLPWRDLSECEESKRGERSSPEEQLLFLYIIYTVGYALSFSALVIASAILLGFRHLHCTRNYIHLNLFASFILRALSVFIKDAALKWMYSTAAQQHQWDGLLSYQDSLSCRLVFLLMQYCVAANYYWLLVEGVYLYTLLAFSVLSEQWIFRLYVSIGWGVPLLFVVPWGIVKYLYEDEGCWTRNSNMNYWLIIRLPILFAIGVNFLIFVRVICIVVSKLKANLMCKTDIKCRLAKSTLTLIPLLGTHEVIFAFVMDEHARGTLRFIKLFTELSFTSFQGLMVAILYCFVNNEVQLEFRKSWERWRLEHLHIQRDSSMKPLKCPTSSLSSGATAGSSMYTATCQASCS

The assay concerns the target T1, GLP-1R (Homo sapiens, UniProt P43220).
T1 construct: host or cells: CHO cells
The assay is described as follows: GLP-1R activation cAMP assay (Assay 1 or Assay 2). The format is cell-based. Conditions: cAMP increase in CHO cells stably expressing GLP-1R; compounds run on one of the two cAMP assays. The procedure, abridged:
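CHO cells stably expressing human GLP-1R were incubated 1 h in HBSS/20 mM HEPES/0.1% BSA, then exposed to 10-point agonist dilutions for 30 min at 37 °C. cAMP increase was measured with an HTRF Gs dynamic kit; EC50 from sigmoidal fit of response versus log concentration.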
For orientation: Changes in cAMP serve as a functional read-out for many G protein-coupled receptors.
As to `NC(=O)c1ncc(COc2cccc(-c3cc(F)c(Cc4nc5ccc(C(=O)O)cc5n4C[C@@H]4CCO4)cc3F)n2)s1` [Example 165, (S)-2-(4-(6-((2-carbamoylthiazol-5-yl)methoxy)pyridin-2-yl)-2,5-difluorobenzyl)-1-(oxetan-2-ylmethyl)-1H-benzo[d]imidazole-6-carboxylic acid], the concentration giving a half-maximal response (EC50) came to 2 nM.

`COCCn1c(Cc2cc(F)c(-c3cccc(OCc4ccc(C(N)=O)nc4)n3)cc2F)nc2ccc(C(=O)O)cc21` [Example 174, 2-(4-(6-((6-carbamoylpyridin-3-yl)methoxy)pyridin-2-yl)-2,5-difluorobenzyl)-1-(2-methoxyethyl)-1H-benzo[d]imidazole-6-carboxylic acid] displayed an EC50 of 40.6 nM.

For the molecule `Cn1cc(C#Cc2ccc(COc3cccc(-c4cc(F)c(Cc5nc6ccc(C(=O)O)cc6n5C[C@@H]5CCO5)cc4F)n3)c(F)n2)cn1` [Example 362, (S)-2-(2,5-difluoro-4-(6-((2-fluoro-6-((1-methyl-1H-pyrazol-4-yl)ethynyl)pyridin-3-yl)methoxy)pyridin-2-yl)benzyl)-1-(oxetan-2-ylmethyl)-1H-benzo[d]imidazole-6-carboxylic acid], the response was half-maximal at 0.33 nM (EC50).

Take `O=C(O)c1ccc2nc(Cc3cc(F)c(-c4cccc(OCc5ccc(C#Cc6cc[nH]c(=O)c6)cc5F)n4)cc3F)n(C[C@@H]3CCO3)c2c1` [Example 356, (S)-2-(2,5-difluoro-4-(6-((2-fluoro-4-((2-oxo-1,2-dihydropyridin-4-yl)ethynyl)benzyl)oxy)pyridin-2-yl)benzyl)-1-(oxetan-2-ylmethyl)-1H-benzo[d]imidazole-6-carboxylic acid]: a half-maximal response (EC50) required 0.099 nM.

Molecule `N#Cc1cccc(C#Cc2cnc(COc3cccc(-c4cc(F)c(Cc5nc6ccc(C(=O)O)cc6n5C[C@@H]5CCO5)cc4F)n3)s2)c1` [Example 316, (S)-2-(4-(6-((5-((3-cyanophenyl)ethynyl)thiazol-2-yl)methoxy)pyridin-2-yl)-2,5-difluorobenzyl)-1-(oxetan-2-ylmethyl)-1H-benzo[d]imidazole-6-carboxylic acid] returned an EC50 of 0.129 nM. With `N#CC1(NC(=O)c2cc(Cl)c(COc3cccc(-c4cc(F)c(Cc5nc6c(F)cc(C(=O)O)cc6n5C[C@@H]5CCO5)cc4F)n3)cn2)CC1` [Example 185, (S)-2-(4-(6-((4-chloro-6-((1-cyanocyclopropyl)carbamoyl)pyridin-3-yl)methoxy)pyridin-2-yl)-2,5-difluorobenzyl)-4-fluoro-1-(oxetan-2-ylmethyl)-1H-benzo[d]imidazole-6-carboxylic acid], the EC50 amounted to 0.08 nM.

`Cn1ccc(CNC(=O)c2cc(Cl)c(COc3cccc(-c4cc(F)c(Cc5nc6ccc(C(=O)O)cc6n5C[C@@H]5CCO5)cc4F)n3)cn2)n1` [Example 366, (S)-2-(4-(6-((4-chloro-6-(((1-methyl-1H-pyrazol-3-yl)methyl)carbamoyl)pyridin-3-yl)methoxy)pyridin-2-yl)-2,5-difluorobenzyl)-1-(oxetan-2-ylmethyl)-1H-benzo[d]imidazole-6-carboxylic acid] came in with a concentration giving a half-maximal response (EC50) of 0.56 nM. With `Cn1cc(C#Cc2ccc(COc3cccc(-c4cc(F)c(Cc5nc6ccc(C(=O)O)cc6n5C[C@@H]5CCO5)cc4F)n3)c(Cl)n2)cn1` [Example 363, (S)-2-(4-(6-((2-chloro-6-((1-methyl-1H-pyrazol-4-yl)ethynyl)pyridin-3-yl)methoxy)pyridin-2-yl)-2,5-difluorobenzyl)-1-(oxetan-2-ylmethyl)-1H-benzo[d]imidazole-6-carboxylic acid] the figure was 0.295 nM; with `COc1nnc(COc2nc(-c3cc(F)c(Cc4nc5c(F)cc(C(=O)O)cc5n4CC4(CF)CC4)cc3F)ccc2F)s1` [Example 410, 2-(2,5-difluoro-4-(5-fluoro-6-((5-methoxy-1,3,4-thiadiazol-2-yl)methoxy)pyridin-2-yl)benzyl)-4-fluoro-1-((1-(fluoromethyl)cyclopropyl)methyl)-1H-benzo[d]imidazole-6-carboxylic acid], 0.551 nM; with `O=C(O)c1cc(F)c2nc(Cc3cc(F)c(-c4cccc(OCc5ncc(-c6cnn(C(F)F)c6)s5)n4)cc3F)n(C[C@@H]3CCO3)c2c1` [Example 85, (S)-2-(4-(6-((5-(1-(difluoromethyl)-1H-pyrazol-4-yl)thiazol-2-yl)methoxy)pyridin-2-yl)-2,5-difluorobenzyl)-4-fluoro-1-(oxetan-2-ylmethyl)-1H-benzo[d]imidazole-6-carboxylic acid], 0.05 nM. In the case of `CC1(C#Cc2cnc(COc3cccc(-c4cc(F)c(Cc5nc6ccc(C(=O)O)cc6n5C[C@@H]5CCO5)cc4F)n3)s2)CC1` [Example 329, (S)-2-(2,5-difluoro-4-(6-((5-((1-methylcyclopropyl)ethynyl)thiazol-2-yl)methoxy)pyridin-2-yl)benzyl)-1-(oxetan-2-ylmethyl)-1H-benzo[d]imidazole-6-carboxylic acid] it was 0.226 nM. In the case of `Cn1ccc(COc2cccc(-c3cc(F)c(Cc4nc5ccc(C(=O)O)cc5n4C[C@@H]4CCO4)cc3F)n2)n1` [Example 124, (S)-2-(2,5-difluoro-4-(6-((1-methyl-1H-pyrazol-3-yl)methoxy)pyridin-2-yl)benzyl)-1-(oxetan-2-ylmethyl)-1H-benzo[d]imidazole-6-carboxylic acid] it was 0.81 nM; in that of `Cn1cc(C#Cc2cnc(COc3nc(-c4cc(F)c(Cc5nc6c(F)cc(C(=O)O)cc6n5C[C@@H]5CCO5)cc4F)ccc3F)c(F)c2)cn1` [Example 296, (S)-2-(2,5-difluoro-4-(5-fluoro-6-((3-fluoro-5-((1-methyl-1H-pyrazol-4-yl)ethynyl)pyridin-2-yl)methoxy)pyridin-2-yl)benzyl)-4-fluoro-1-(oxetan-2-ylmethyl)-1H-benzo[d]imidazole-6-carboxylic acid], 0.036 nM. The molecule `COc1nnc(COc2cccc(-c3cc(F)c(Cc4nc5c(F)cc(C(=O)O)cc5n4[C@@H]4COCC4(C)C)c(F)c3)n2)s1` [Example 439, (S)-2-(2,6-difluoro-4-(6-((5-methoxy-1,3,4-thiadiazol-2-yl)methoxy)pyridin-2-yl)benzyl)-1-(4,4-dimethyltetrahydrofuran-3-yl)-4-fluoro-1H-benzo[d]imidazole-6-carboxylic acid] yielded a concentration giving a half-maximal response (EC50) of 0.397 nM. In the case of `O=C(O)c1ccc2nc(Cc3cc(F)c(-c4cccc(OCc5ccc(-c6cn(C78CC(C7)C8)nn6)cc5F)n4)cc3F)n(C[C@@H]3CCO3)c2c1` [Example 216, (S)-2-(4-(6-((4-(1-(bicyclo[1.1.1]pentan-1-yl)-1H-1,2,3-triazol-4-yl)-2-fluorobenzyl)oxy)pyridin-2-yl)-2,5-difluorobenzyl)-1-(oxetan-2-ylmethyl)-1H-benzo[d]imidazole-6-carboxylic acid] it was 0.72 nM. Molecule `Cn1nc(COc2cccc(-c3cc(F)c(Cc4nc5ccc(C(=O)O)cc5n4C[C@@H]4CCO4)cc3F)n2)c2c1CCC2` [Example 73, (S)-2-(2,5-difluoro-4-(6-((1-methyl-1,4,5,6-tetrahydrocyclopenta[c]pyrazol-3-yl)methoxy)pyridin-2-yl)benzyl)-1-(oxetan-2-ylmethyl)-1H-benzo[d]imidazole-6-carboxylic acid] displayed an EC50 of 1.1 nM. In turn, `O=C(O)c1ccc2nc(Cc3cc(F)c(-c4cccc(OCc5cc(F)c(Br)s5)n4)cc3F)n(C[C@@H]3CCO3)c2c1` [Example 51, (S)-2-(4-(6-((5-bromo-4-fluorothiophen-2-yl)methoxy)pyridin-2-yl)-2,5-difluorobenzyl)-1-(oxetan-2-ylmethyl)-1H-benzo[d]imidazole-6-carboxylic acid] showed a concentration for a half-maximal effect (EC50) of 0.21 nM.

Regarding `O=C(O)c1ccc2nc(Cc3cc(F)c(-c4cccc(OCc5ncc(-c6ccc(Cl)cc6)s5)n4)cc3F)n(C[C@@H]3CCO3)c2c1` [Example 384, (S)-2-(4-(6-((5-(4-chlorophenyl)thiazol-2-yl)methoxy)pyridin-2-yl)-2,5-difluorobenzyl)-1-(oxetan-2-ylmethyl)-1H-benzo[d]imidazole-6-carboxylic acid], the EC50 turned out to be 0.563 nM. Molecule `CCOc1nnc(COc2nc(-c3cc(F)c(Cc4nc5c(F)cc(C(=O)O)cc5n4[C@@H]4COCC4(C)C)cc3C)ccc2F)s1` [Example 422, (S)-1-(4,4-dimethyltetrahydrofuran-3-yl)-2-(4-(6-((5-ethoxy-1,3,4-thiadiazol-2-yl)methoxy)-5-fluoropyridin-2-yl)-2-fluoro-5-methylbenzyl)-4-fluoro-1H-benzo[d]imidazole-6-carboxylic acid] displayed an EC50 of 0.066 nM. With `O=C(O)c1ccc2nc(Cc3cc(F)c(-c4cccc(OCc5cnc(-c6cn(C7COC7)nn6)cc5F)n4)cc3F)n(C[C@@H]3CCO3)c2c1` [Example 236, 2-[[2,5-difluoro-4-[6-[[4-fluoro-6-[1-(oxetan-3-yl)triazol-4-yl]-3-pyridyl]methoxy]-2-pyridyl]phenyl]methyl]-3-[[(2S)-oxetan-2-yl]methyl]benzimidazole-5-carboxylic acid] the figure was 0.22 nM; with `N#CC1(Cn2cc(-c3ccc(COc4cccc(-c5cc(F)c(Cc6nc7ccc(C(=O)O)cc7n6C[C@@H]6CCO6)cc5F)n4)c(F)c3)cn2)CC1` [Example 159, (S)-2-(4-(6-((4-(1-((1-cyanocyclopropyl)methyl)-1H-pyrazol-4-yl)-2-fluorobenzyl)oxy)pyridin-2-yl)-2,5-difluorobenzyl)-1-(oxetan-2-ylmethyl)-1H-benzo[d]imidazole-6-carboxylic acid], 0.18 nM. In the case of `Cc1nnc(COc2cccc(-c3cc(F)c(Cc4nc5ccc(C(=O)O)cc5n4[C@H]4COCC4(C)C)c(F)c3F)n2)s1` (single isomer, unassigned) [Example 281B] it was 20.8 nM; in that of `COc1cc(COc2cccc(-c3cc(F)c(Cc4nc5ccc(C(=O)O)cc5n4C[C@@H]4CCO4)cc3F)n2)nn1C` [Example 68, (S)-2-(2,5-difluoro-4-(6-((5-methoxy-1-methyl-1H-pyrazol-3-yl)methoxy)pyridin-2-yl)benzyl)-1-(oxetan-2-ylmethyl)-1H-benzo[d]imidazole-6-carboxylic acid], 5.37 nM.

One may read the EC50 as the concentration that produces a half-maximal response. A low value points to an effect from little substance.
